The numbers were not newly measured in patent publication US9636407B2, “Caspofungin acetate formulations” (priority 2012, dated 2017), which cites them from elsewhere.

The conditions of data set [1]: CANCIDAS prescribing information.
The conditions of data set [2]: background statement.

For “1-[(4R,5S)-5-[(2-aminoethyl)amino]-N^2-(10,12-dimethyl-1-oxotetradecyl)-4-hydroxy-L-ornithine]-5-[(3R)-3-hydroxy-L-ornithine]pneumocandin B0 diacetate (salt) [caspofungin acetate]”, the “pH of a saturated solution in water” value in data set [1] is given as “about 6.6”. For the same substance, the oral bioavailability result in data set [2] is “poor”.
